Test results taken from US7531320B2, “Modulation of β-catenin/TCF-activated transcription” (priority 2003, dated 2009).

Experiments:
[1] = tested on: caspase-3/7 in CCD18Co cells; test: Caspase-3/7 activity assay, normal colonocytes CCD18Co; assay type: cell-based, human; details: 25 μM, 24 hours
Procedure: FIG. 6. • A. COMPOUND 1 arrests cells in G1. FACS analysis was performed on SW480 (lower panel) and HCT116 (upper panel) cells treated for 24 hours with either COMPOUND 1 (25 μM) (right) or control (0.5% DMSO (left). 5.5×10^6 cells were fixed and stained with propidium iodide (PI). G0/G1, S, and G2/M are indicated by arrows. • B. COMPOUND 1 selectively activates caspases in colon carcinoma cell lines. SW480 and HCT116 (left graph) cells (10^5) along with the normal colonocytes, CCD18Co (right graph) were treated with either control (0.5% DMSO) or COMPOUND 1 (25 μM). 24 hours post treatment, cells were lysed and the caspase-3/7 enzymatic activities were measured. Relative fluorescence units (RFU) were calculated by subtracting the unit values of the blank (control, without cells) from the treated samples (COMPOUND 1 or control) and plotted.
SW480, HCT116, and CCD18Co cells were plated at 10^5 cells per well (96-well plates) for 24 hours prior to treatment. 25 μM of COMPOUND 1 or control (0.5% DMSO) was added to each well. 24 hours post treatment, cells were lysed and caspase activity was measured using a caspase-3/7 activity kit (Apo-One Homogeneous caspase-3/7 assay, #G77905, Promega). Relative fluorescence units (RFU) were obtained by subtracting the unit values of the blank (control, without cells) from the experimental measured values. […]

[2] = tested on: c-myc promoter; test: ChIP assay, c-myc promoter in SW480 cells; assay type: cell-based, human; details: 25 μM, 8 hours
Procedure: FIG. 5. COMPOUND 1 inhibits the expression of cyclin D1. • A. Cyclin D1 levels are decreased with COMPOUND 1 treatment. Western blot analysis was performed on 25 μg of SW480 whole cell lysates treated for 4, 8, or 24 hours with either 25 μM of COMPOUND 1 or control (0.5% DMSO). Immunoblotting was performed using anti-Cyclin D1 antibodies (Santa Cruz Biotechnology Inc.). • B. In vivo occupancy of cyclin D1 and c-myc promoters by CBP and p300. […] ChIP assays were performed on promoter of c-myc from SW480 cells which was treated for 8 hours with COMPOUND 1 (25 μM) or control (0.5% DMSO). CBP (AC-26, a generous gift from Dr. David Livingston, Harvard University, Boston, Mass.) or p300 (C-20, Santa Cruz Biotechnology Inc.) specific antibodies were used to evaluate the promoter occupancy by CBP or p300 in presence of COMPOUND 1 or control (DMSO) treatment.
Formaldehyde cross-linking and chromatin immunoprecipitation assays of SW480 cells were performed as described previously (Barlev et al., “Acetylation of p53 activates transcription through recruitment of coactivators/histone acetyltransferases,” Mol. Cell 8:1243-54 (2001); El-Osta et al., “Analysis of chromatin-immunopurified MeCP2-associated fragments,” Biochem. Biophys. Res. Commun. 289:733-37 (2001); Shang et al., “Formation of the androgen receptor transcription Complex,” Mol. Cell 9:601-10 (2002)). […]

SMILES: O=C1C(Cc2ccc(O)cc2)N2C(=O)CCN(C(=O)NCc3ccccc3)C2CN1Cc1cccc2ccccc12 (stereo not drawn) [COMPOUND 1]
- Caspase activation [1]: not in normal colonocytes
- Association of CBP with the c-myc promoter [2]: completely and selectively blocks
- Level of p300 associated with the c-myc promoter [2]: increased
